Assay results reported in ChEMBL document CHEMBL5724914, “Linking interpersonal differences in gut microbiota composition and drug biotransformation activity” (2024).

Experiment: (§1) The drug is tested on Z-019 corresponding to rat gut metagenome with ENA study accession number: PRJEB37062 and ENA sample accession number: ERS12561818 for biotransformation under anaerobic condition. The drug concentrations were measured over 9 timepoints collected between 0 and 24 hours of incubation by liquid-chromatography-coupled mass spectrometry (LC–MS)
Conditions: 2 µM
Further: call rule not given here.

Bacterial Biotransformation	SMILES
Compound NOT metabolized	CC(C)c1nc(CN(C)C(=O)N[C@H](C(=O)N[C@@H](Cc2ccccc2)C[C@H](O)[C@H](Cc2ccccc2)NC(=O)OCc2cncs2)C(C)C)cs1 [RITONAVIR]
Compound NOT metabolized	NC12CC3CC(CC(C3)C1)C2 [AMANTADINE]

Experiment: as §1, with “on Z-017” for “on Z-019”, “to mouse” for “to rat”, “number: ERS12561816” for “number: ERS12561818”
Conditions: 2 µM

Bacterial Biotransformation	SMILES
Compound NOT metabolized	CC(C)c1nc(CN(C)C(=O)N[C@H](C(=O)N[C@@H](Cc2ccccc2)C[C@H](O)[C@H](Cc2ccccc2)NC(=O)OCc2cncs2)C(C)C)cs1 [RITONAVIR]
Compound NOT metabolized	NC12CC3CC(CC(C3)C1)C2 [AMANTADINE]

Experiment: as §1, with “on Z-016” for “on Z-019”, “to mouse” for “to rat”, “number: ERS12561815” for “number: ERS12561818”
Conditions: 2 µM

Bacterial Biotransformation	SMILES
Compound metabolized	CC(C)c1nc(CN(C)C(=O)N[C@H](C(=O)N[C@@H](Cc2ccccc2)C[C@H](O)[C@H](Cc2ccccc2)NC(=O)OCc2cncs2)C(C)C)cs1 [RITONAVIR]
Compound NOT metabolized	NC12CC3CC(CC(C3)C1)C2 [AMANTADINE]

Experiment: as §1, with “Z-014” for “Z-019”, “ERS12561814” for “ERS12561818”
Conditions: 2 µM

Bacterial Biotransformation	SMILES
Compound metabolized	CC(C)c1nc(CN(C)C(=O)N[C@H](C(=O)N[C@@H](Cc2ccccc2)C[C@H](O)[C@H](Cc2ccccc2)NC(=O)OCc2cncs2)C(C)C)cs1 [RITONAVIR]
Compound NOT metabolized	NC12CC3CC(CC(C3)C1)C2 [AMANTADINE]

Experiment: as §1, with “on Z-013” for “on Z-019”, “to rabbit” for “to rat”, “number: ERS12561813” for “number: ERS12561818”
Conditions: 2 µM

Bacterial Biotransformation	SMILES
Compound metabolized	CC(C)c1nc(CN(C)C(=O)N[C@H](C(=O)N[C@@H](Cc2ccccc2)C[C@H](O)[C@H](Cc2ccccc2)NC(=O)OCc2cncs2)C(C)C)cs1 [RITONAVIR]
Compound NOT metabolized	NC12CC3CC(CC(C3)C1)C2 [AMANTADINE]

Experiment: as §1, with “Z-008” for “Z-019”, “to” for “to rat gut”, “ERS12561808” for “ERS12561818”
Conditions: 2 µM

Bacterial Biotransformation	SMILES
Compound metabolized	CC(C)c1nc(CN(C)C(=O)N[C@H](C(=O)N[C@@H](Cc2ccccc2)C[C@H](O)[C@H](Cc2ccccc2)NC(=O)OCc2cncs2)C(C)C)cs1 [RITONAVIR]
Compound NOT metabolized	NC12CC3CC(CC(C3)C1)C2 [AMANTADINE]

Experiment: as §1, with “on WLS-310” for “on Z-019”, “to human” for “to rat”, “number: ERS12561785” for “number: ERS12561818”
Conditions: 2 µM

Bacterial Biotransformation	SMILES
Compound metabolized	CC(C)c1nc(CN(C)C(=O)N[C@H](C(=O)N[C@@H](Cc2ccccc2)C[C@H](O)[C@H](Cc2ccccc2)NC(=O)OCc2cncs2)C(C)C)cs1 [RITONAVIR]
Compound NOT metabolized	NC12CC3CC(CC(C3)C1)C2 [AMANTADINE]

Experiment: as §1, with “on WLS-220” for “on Z-019”, “to human” for “to rat”, “number: ERS12561769” for “number: ERS12561818”
Conditions: 2 µM

Bacterial Biotransformation	SMILES
Compound metabolized	CC(C)c1nc(CN(C)C(=O)N[C@H](C(=O)N[C@@H](Cc2ccccc2)C[C@H](O)[C@H](Cc2ccccc2)NC(=O)OCc2cncs2)C(C)C)cs1 [RITONAVIR]
Compound NOT metabolized	NC12CC3CC(CC(C3)C1)C2 [AMANTADINE]

Experiment: as §1, with “on WLS-086” for “on Z-019”, “to human” for “to rat”, “number: ERS12561752” for “number: ERS12561818”
Conditions: 2 µM

Bacterial Biotransformation	SMILES
Compound metabolized	CC(C)c1nc(CN(C)C(=O)N[C@H](C(=O)N[C@@H](Cc2ccccc2)C[C@H](O)[C@H](Cc2ccccc2)NC(=O)OCc2cncs2)C(C)C)cs1 [RITONAVIR]
Compound NOT metabolized	NC12CC3CC(CC(C3)C1)C2 [AMANTADINE]

Experiment: as §1, with “on WLS-073” for “on Z-019”, “to human” for “to rat”, “number: ERS12561749” for “number: ERS12561818”
Conditions: 2 µM

Bacterial Biotransformation	SMILES
Compound metabolized	CC(C)c1nc(CN(C)C(=O)N[C@H](C(=O)N[C@@H](Cc2ccccc2)C[C@H](O)[C@H](Cc2ccccc2)NC(=O)OCc2cncs2)C(C)C)cs1 [RITONAVIR]
Compound NOT metabolized	NC12CC3CC(CC(C3)C1)C2 [AMANTADINE]

Experiment: as §1, with “on WLS-038” for “on Z-019”, “to human” for “to rat”, “number: ERS12561745” for “number: ERS12561818”
Conditions: 2 µM

Bacterial Biotransformation	SMILES
Compound metabolized	CC(C)c1nc(CN(C)C(=O)N[C@H](C(=O)N[C@@H](Cc2ccccc2)C[C@H](O)[C@H](Cc2ccccc2)NC(=O)OCc2cncs2)C(C)C)cs1 [RITONAVIR]
Compound NOT metabolized	NC12CC3CC(CC(C3)C1)C2 [AMANTADINE]

Experiment: as §1, with “on WLS-007” for “on Z-019”, “to human” for “to rat”, “number: ERS12561742” for “number: ERS12561818”
Conditions: 2 µM

Bacterial Biotransformation	SMILES
Compound metabolized	CC(C)c1nc(CN(C)C(=O)N[C@H](C(=O)N[C@@H](Cc2ccccc2)C[C@H](O)[C@H](Cc2ccccc2)NC(=O)OCc2cncs2)C(C)C)cs1 [RITONAVIR]
Compound NOT metabolized	NC12CC3CC(CC(C3)C1)C2 [AMANTADINE]

Conditions: human gut metagenome, 24 h, 2 µM

Bacterial Biotransformation	SMILES
Compound NOT metabolized	CC(C)c1nc(CN(C)C(=O)N[C@H](C(=O)N[C@@H](Cc2ccccc2)C[C@H](O)[C@H](Cc2ccccc2)NC(=O)OCc2cncs2)C(C)C)cs1 [RITONAVIR]
Compound NOT metabolized	NC12CC3CC(CC(C3)C1)C2 [AMANTADINE]

Conditions: human gut metagenome, 24 h, 2 µM
Remark: another data set of the same source

Bacterial Biotransformation	SMILES
Compound metabolized	CC(C)c1nc(CN(C)C(=O)N[C@H](C(=O)N[C@@H](Cc2ccccc2)C[C@H](O)[C@H](Cc2ccccc2)NC(=O)OCc2cncs2)C(C)C)cs1 [RITONAVIR]
Compound NOT metabolized	NC12CC3CC(CC(C3)C1)C2 [AMANTADINE]

Conditions: human gut metagenome, 24 h, 2 µM
Remark: another data set of the same source

Bacterial Biotransformation	SMILES
Compound NOT metabolized	CC(C)c1nc(CN(C)C(=O)N[C@H](C(=O)N[C@@H](Cc2ccccc2)C[C@H](O)[C@H](Cc2ccccc2)NC(=O)OCc2cncs2)C(C)C)cs1 [RITONAVIR]
Compound NOT metabolized	NC12CC3CC(CC(C3)C1)C2 [AMANTADINE]

Conditions: human gut metagenome, 24 h, 2 µM
Remark: another data set of the same source

Bacterial Biotransformation	SMILES
Compound metabolized	CC(C)c1nc(CN(C)C(=O)N[C@H](C(=O)N[C@@H](Cc2ccccc2)C[C@H](O)[C@H](Cc2ccccc2)NC(=O)OCc2cncs2)C(C)C)cs1 [RITONAVIR]
Compound NOT metabolized	NC12CC3CC(CC(C3)C1)C2 [AMANTADINE]

Conditions: human gut metagenome, 24 h, 2 µM
Remark: another data set of the same source

Bacterial Biotransformation	SMILES
Compound metabolized	CC(C)c1nc(CN(C)C(=O)N[C@H](C(=O)N[C@@H](Cc2ccccc2)C[C@H](O)[C@H](Cc2ccccc2)NC(=O)OCc2cncs2)C(C)C)cs1 [RITONAVIR]
Compound NOT metabolized	NC12CC3CC(CC(C3)C1)C2 [AMANTADINE]

Conditions: human gut metagenome, 24 h, 2 µM
Remark: another data set of the same source

Bacterial Biotransformation	SMILES
Compound NOT metabolized	CC(C)c1nc(CN(C)C(=O)N[C@H](C(=O)N[C@@H](Cc2ccccc2)C[C@H](O)[C@H](Cc2ccccc2)NC(=O)OCc2cncs2)C(C)C)cs1 [RITONAVIR]
Compound NOT metabolized	NC12CC3CC(CC(C3)C1)C2 [AMANTADINE]

Conditions: human gut metagenome, 24 h, 2 µM
Remark: another data set of the same source

Bacterial Biotransformation	SMILES
Compound metabolized	CC(C)c1nc(CN(C)C(=O)N[C@H](C(=O)N[C@@H](Cc2ccccc2)C[C@H](O)[C@H](Cc2ccccc2)NC(=O)OCc2cncs2)C(C)C)cs1 [RITONAVIR]
Compound NOT metabolized	NC12CC3CC(CC(C3)C1)C2 [AMANTADINE]

Conditions: human gut metagenome, 24 h, 2 µM
Remark: another data set of the same source

Bacterial Biotransformation	SMILES
Compound metabolized	CC(C)c1nc(CN(C)C(=O)N[C@H](C(=O)N[C@@H](Cc2ccccc2)C[C@H](O)[C@H](Cc2ccccc2)NC(=O)OCc2cncs2)C(C)C)cs1 [RITONAVIR]
Compound NOT metabolized	NC12CC3CC(CC(C3)C1)C2 [AMANTADINE]
